Test results reported in patent US11690377B2, “Herbicidal composition and method of use thereof” (Belchim Crop Protection NV, priority 2017, dated 2023).

Tests used:
Format in all cases: in vivo
[1] = tested on: AMAPA - Palmer Pigweed (Amaranthus palmeri); assay: Field trial, post-emergence weed control in corn, AMAPA; conditions: mesotrione 3 oz/A, pyridate 6.84 oz/A, combination 3 + 6.84 oz/A
Procedure: (§1) Field trials were conducted in Tennessee and Illinois (USA). The crop and weed species had been seeded and/or drill sown. In the case of post-emergence evaluation, seeded and/or drill sown plants were grown to a certain growth stage before application of the active ingredients (alone or as a mixture). In the case of pre-emergence evaluation, the application of the active ingredients was carried out after the plants were seeded and/or drilled sown. The trial was in the form of a randomized complete block. The percentage of weed control was assessed in several different instances after treatment until a maximum of 42 days after treatment, by comparison with untreated control plots by visual scoring. The herbicidal action was assessed qualitatively and quantitatively. To quantify the synergic effect resulting from the combination of mesotrione and pyridate, the inventors used the methodology described by Colby, in which a synergistic effect exists when the activity of a composition comprising both active compounds is greater than the sum of the activities of the two active compounds applied individually. The expected activity for the combination of mesotrione and pyridate can be calculated by the following so-called “Colby equation” (see S. R. Colby, “Calculating Synergistic and Antagonistic Responses of Herbicide Combinations”, Weeds 1967, 15, 20-22). Pa+b=(Pa+Pb)−(Pa*Pb/100) Wherein • Pa+b is the expected percent inhibition of weed growth by the combination of mesotrione and pyridate; • Pa is the percent inhibition of weed growth induced by mesotrione; • Pb is the percent inhibition of weed growth induced by pyridate. If the actual percent inhibition of weed growth induced by the combination of mesotrione and pyridate is greater than the expected percent inhibition (Pa+b) calculated from the Colby equation, then the activity of the combination is synergistic. The below Tables represent the herbicidal performance of the composition according to the invention, and also the herbicidal performance of the active ingredients alone, in controlling specific weeds. The expected percent inhibition of weed growth (derived from the Colby's equation) and the actual (observed) percent inhibition of weed growth is also presented in order to conclude on the synergistic effect of the combination according to the invention. Post-Emergence Herbicidal Performance of the Composition According to the Invention Against Broadleaf Weed in Corn.

[2] = tested on: AMAPA - Palmer Pigweed (Amaranthus palmeri); assay: Field trial, pre-emergence weed control in corn, AMAPA; conditions: mesotrione 3.85 oz/A, pyridate 6.84 oz/A, combination 3.85 + 6.84 oz/A
Procedure: (§2) Field trials were conducted in Tennessee and Illinois (USA). The crop and weed species had been seeded and/or drill sown. In the case of post-emergence evaluation, seeded and/or drill sown plants were grown to a certain growth stage before application of the active ingredients (alone or as a mixture). In the case of pre-emergence evaluation, the application of the active ingredients was carried out after the plants were seeded and/or drilled sown. The trial was in the form of a randomized complete block. The percentage of weed control was assessed in several different instances after treatment until a maximum of 42 days after treatment, by comparison with untreated control plots by visual scoring. The herbicidal action was assessed qualitatively and quantitatively. To quantify the synergic effect resulting from the combination of mesotrione and pyridate, the inventors used the methodology described by Colby, in which a synergistic effect exists when the activity of a composition comprising both active compounds is greater than the sum of the activities of the two active compounds applied individually. The expected activity for the combination of mesotrione and pyridate can be calculated by the following so-called “Colby equation” (see S. R. Colby, “Calculating Synergistic and Antagonistic Responses of Herbicide Combinations”, Weeds 1967, 15, 20-22). Pa+b=(Pa+Pb)−(Pa*Pb/100) Wherein • Pa+b is the expected percent inhibition of weed growth by the combination of mesotrione and pyridate; • Pa is the percent inhibition of weed growth induced by mesotrione; • Pb is the percent inhibition of weed growth induced by pyridate. If the actual percent inhibition of weed growth induced by the combination of mesotrione and pyridate is greater than the expected percent inhibition (Pa+b) calculated from the Colby equation, then the activity of the combination is synergistic. The below Tables represent the herbicidal performance of the composition according to the invention, and also the herbicidal performance of the active ingredients alone, in controlling specific weeds. The expected percent inhibition of weed growth (derived from the Colby's equation) and the actual (observed) percent inhibition of weed growth is also presented in order to conclude on the synergistic effect of the combination according to the invention. Pre-Emergence Herbicidal Performance of the Composition According to the Invention Against Broadleaf Weed in Corn.

[3] = tested on: ELEIN - Goosegrass (Eleusine indica); assay: Field trial, pre-emergence weed control in corn, ELEIN; conditions: mesotrione 3.85 oz/A, pyridate 6.84 oz/A, combination 3.85 + 6.84 oz/A
Procedure: as §2

[4] = tested on: SETVI - Green foxtail (Setaria viridis); assay: Field trial, post-emergence weed control in corn, SETVI
Procedure: Field trials were conducted in Tennessee and Illinois (USA). The crop and weed species had been seeded and/or drill sown. In the case of post-emergence evaluation, seeded and/or drill sown plants were grown to a certain growth stage before application of the active ingredients (alone or as a mixture). In the case of pre-emergence evaluation, the application of the active ingredients was carried out after the plants were seeded and/or drilled sown. The trial was in the form of a randomized complete block. The percentage of weed control was assessed in several different instances after treatment until a maximum of 42 days after treatment, by comparison with untreated control plots by visual scoring. The herbicidal action was assessed qualitatively and quantitatively. To quantify the synergic effect resulting from the combination of mesotrione and pyridate, the inventors used the methodology described by Colby, in which a synergistic effect exists when the activity of a composition comprising both active compounds is greater than the sum of the activities of the two active compounds applied individually. The expected activity for the combination of mesotrione and pyridate can be calculated by the following so-called “Colby equation” (see S. R. Colby, “Calculating Synergistic and Antagonistic Responses of Herbicide Combinations”, Weeds 1967, 15, 20-22). Pa+b=(Pa+Pb)−(Pa*Pb/100) Wherein • Pa+b is the expected percent inhibition of weed growth by the combination of mesotrione and pyridate; • Pa is the percent inhibition of weed growth induced by mesotrione; • Pb is the percent inhibition of weed growth induced by pyridate. If the actual percent inhibition of weed growth induced by the combination of mesotrione and pyridate is greater than the expected percent inhibition (Pa+b) calculated from the Colby equation, then the activity of the combination is synergistic. The below Tables represent the herbicidal performance of the composition according to the invention, and also the herbicidal performance of the active ingredients alone, in controlling specific weeds. The expected percent inhibition of weed growth (derived from the Colby's equation) and the actual (observed) percent inhibition of weed growth is also presented in order to conclude on the synergistic effect of the combination according to the invention. […]

[5] = tested on: IPOHE - Ivyleaf Morningglory (Ipomoea headrace); assay: Field trial, pre-emergence weed control in corn, IPOHE; conditions: mesotrione 3.85, pyridate 6.84, combination 3.85 + 6.84 (rate unit not given)
Procedure: as §2

[6] = tested on: IPOHE - Ivyleaf Morningglory (Ipomoea headrace); assay: Field trial, post-emergence weed control in corn, IPOHE
Procedure: as §1

[7] = tested on: AMATA - Common Waterhemp (Amaranthus rudis); assay: Field trial, post-emergence weed control in corn, AMATA
Procedure: as §1

[8] = 14 days after treatment, mesotrione 2 oz/A, pyridate 2 oz/A, combination 2 + 2 oz/A
[9] = 14 days after treatment, mesotrione 3 oz/A, pyridate 3 oz/A, combination 3 + 3 oz/A
[10] = 21 days after treatment, mesotrione 2 oz/A, pyridate 2 oz/A, combination 2 + 2 oz/A
[11] = 21 days after treatment, mesotrione 3 oz/A, pyridate 3 oz/A, combination 3 + 3 oz/A
[12] = 38 days after treatment, mesotrione 2 oz/A, pyridate 2 oz/A, combination 2 + 2 oz/A
[13] = 38 days after treatment, mesotrione 3 oz/A, pyridate 3 oz/A, combination 3 + 3 oz/A
[14] = 8 days after treatment, mesotrione 2 oz/A, pyridate 2 oz/A, combination 2 + 2 oz/A
[15] = 8 days after treatment, mesotrione 3 oz/A, pyridate 3 oz/A, combination 3 + 3 oz/A
[16] = 8 days after treatment, mesotrione 3 oz/A, pyridate 6.84 oz/A, combination 3 + 6.84 oz/A
[17] = 16 days after treatment, mesotrione 2 oz/A, pyridate 2 oz/A, combination 2 + 2 oz/A
[18] = 16 days after treatment, mesotrione 3 oz/A, pyridate 3 oz/A, combination 3 + 3 oz/A
[19] = 16 days after treatment, mesotrione 3 oz/A, pyridate 6.84 oz/A, combination 3 + 6.84 oz/A
[20] = 21 days after treatment, mesotrione 3 oz/A, pyridate 6.84 oz/A, combination 3 + 6.84 oz/A
[21] = 7 days after treatment, mesotrione 2 oz./A, pyridate 2 oz./A, combination 2 + 2 oz./A
[22] = 7 days after treatment, mesotrione 3 oz./A, pyridate 3 oz./A, combination 3 + 3 oz./A
[23] = 7 days after treatment, mesotrione 3 oz./A, pyridate 6.84 oz./A, combination 3 + 6.84 oz./A
[24] = 14 days after treatment, mesotrione 2 oz./A, pyridate 2 oz./A, combination 2 + 2 oz./A
[25] = 14 days after treatment, mesotrione 3 oz./A, pyridate 3 oz./A, combination 3 + 3 oz./A
[26] = 14 days after treatment, mesotrione 3 oz./A, pyridate 6.84 oz./A, combination 3 + 6.84 oz./A
[27] = 28 days after treatment, mesotrione 2 oz./A, pyridate 2 oz./A, combination 2 + 2 oz./A
[28] = 28 days after treatment, mesotrione 3 oz./A, pyridate 3 oz./A, combination 3 + 3 oz./A
[29] = 28 days after treatment, mesotrione 3 oz./A, pyridate 6.84 oz./A, combination 3 + 6.84 oz./A

| Structure (SMILES) | Mean percentage of weed control (observed) ([1]; 8 days after treatment) | Mean percentage of weed control (observed) ([1]; 16 days after treatment) | Mean percentage of weed control (observed) ([1]; 21 days after treatment) | Mean percentage of weed control (observed) ([2]; 7 days after treatment) | Mean percentage of weed control (observed) ([2]; 14 days after treatment) | Mean percentage of weed control (observed) ([2]; 28 days after treatment) | Mean percentage of weed control (observed) ([2]; 42 days after treatment) | Mean percentage of weed control (observed) ([3]; 7 days after treatment) | Mean percentage of weed control (observed) ([3]; 14 days after treatment) | Mean percentage of weed control (observed) [4, 8] | Mean percentage of weed control (observed) [4, 9] | Mean percentage of weed control (observed) [4, 10] | Mean percentage of weed control (observed) [4, 11] | Mean percentage of weed control (observed) [4, 12] | Mean percentage of weed control (observed) [4, 13] | Mean percentage of weed control (observed) ([5]; 7 days after treatment) | Mean percentage of weed control (observed) ([5]; 14 days after treatment) | Mean percentage of weed control (observed) ([5]; 28 days after treatment) | Mean percentage of weed control (observed) ([5]; 42 days after treatment) | Mean percentage of weed control (observed) [6, 14] | other results |
| --- | --- | --- | --- | --- | --- | --- | --- | --- | --- | --- | --- | --- | --- | --- | --- | --- | --- | --- | --- | --- | --- |
| CS(=O)(=O)c1ccc(C(=O)C2C(=O)CCCC2=O)c([N+](=O)[O-])c1 [mesotrione, Mesotrione] | 53% | 55% | 55% | 62% | 64% | 40% | 34% | 65% | 78% | 48% | 58% | 50% | 60% | 50% | 60% | 62% | 64% | 40% | 34% | 43% | Mean percentage of weed control (observed) [6, 15]: 68%; Mean percentage of weed control (observed) [6, 16]: 65%; Mean percentage of weed control (observed) [6, 17]: 35%; Mean percentage of weed control (observed) [6, 18]: 63%; Mean percentage of weed control (observed) [6, 19]: 78%; Mean percentage of weed control (observed) [6, 10]: 38%; Mean percentage of weed control (observed) [6, 11]: 60%; Mean percentage of weed control (observed) [6, 20]: 75%; Mean percentage of weed control (observed) [7, 21]: 73%; Mean percentage of weed control (observed) [7, 22]: 73%; Mean percentage of weed control (observed) [7, 23]: 68%; Mean percentage of weed control (observed) [7, 24]: 75%; Mean percentage of weed control (observed) [7, 25]: 73%; Mean percentage of weed control (observed) [7, 26]: 80%; Mean percentage of weed control (observed) [7, 27]: 73%; Mean percentage of weed control (observed) [7, 28]: 68%; Mean percentage of weed control (observed) [7, 29]: 85% |
| CCCCCCCCSC(=O)Oc1cc(Cl)nnc1-c1ccccc1 [pyridate, Pyridate] | 23% | 33% | 33% | 37% | 42% | 20% | 20% | 37% | 37% | 10% | 10% | 10% | 10% | 10% | 10% | 37% | 42% | 20% | 20% | 28% | Mean percentage of weed control (observed) [6, 15]: 40%; Mean percentage of weed control (observed) [6, 16]: 10%; Mean percentage of weed control (observed) [6, 17]: 18%; Mean percentage of weed control (observed) [6, 18]: 10%; Mean percentage of weed control (observed) [6, 19]: 23%; Mean percentage of weed control (observed) [6, 10]: 18%; Mean percentage of weed control (observed) [6, 11]: 10%; Mean percentage of weed control (observed) [6, 20]: 23%; Mean percentage of weed control (observed) [7, 21]: 0%; Mean percentage of weed control (observed) [7, 22]: 0%; Mean percentage of weed control (observed) [7, 23]: 10%; Mean percentage of weed control (observed) [7, 24]: 0%; Mean percentage of weed control (observed) [7, 25]: 0%; Mean percentage of weed control (observed) [7, 26]: 12%; Mean percentage of weed control (observed) [7, 27]: 0%; Mean percentage of weed control (observed) [7, 28]: 0%; Mean percentage of weed control (observed) [7, 29]: 6% |
